Data published in US11013696B2, “Lipids and lipid compositions for the delivery of active agents” (Novartis AG, priority 2013, dated 2021).

Tests used:
[1] = Entrapment and RNA concentration of RSV-F replicon liposomes (Quant-iT RiboGreen); type: physicochemical
Method: RNA was encapsulated in liposomes made essentially by the method of Geall et al. (2012) PNAS vol. 109 (36): 14604-14609, Jeffs et al. (2005) Pharmaceutical Research 22 (3):362-372 and Maurer et al. (2001) Biophysical Journal, 80: 2310-2326 The liposomes were made of 10% DSPC (zwitterionic), 40% cationic lipid, 48% cholesterol and 2% PEG-conjugated DMG (2 kDa PEG). These proportions refer to the % moles in the total liposome.
Briefly, lipids were dissolved in ethanol (2 ml), a RNA replicon was dissolved in buffer (2 ml, 100 mM sodium citrate, pH 6) and these were mixed with 2 ml of buffer followed by 1 hour of equilibration. The mixture was then dialized overnight against 1×PBS. The resulting product contained liposomes, with ˜70-95% encapsulation efficiency. For in vitro and in vivo experiments formulations were diluted to the required RNA concentration with 1×PBS.
The percentage of encapsulated RNA and RNA concentration were determined by Quant-iT RiboGreen RNA reagent kit (Invitrogen), following manufacturer's instructions. The ribosomal RNA standard provided in the kit was used to generate a standard curve. Liposomes were diluted 10× or 100× in 1×TE buffer (from kit) before addition of the dye. Separately, liposomes were diluted 10× or 100× in 1×TE buffer containing 0.5% Triton X before addition of the dye (to disrupt the liposomes and thus to assay total RNA). Thereafter an equal amount of dye was added to each solution and then ˜180 μL of each solution after dye addition was loaded in duplicate into a 96 well tissue culture plate. The fluorescence (Ex 485 nm, Em 528 nm) was read on a microplate reader. All liposome formulations were dosed in vivo based on the encapsulated amount of RNA.
A self-replicating replicon encoding RSV F protein was administered to BALB/c mice, 8 animals per group, by bilateral intramuscular vaccinations (50 μL per leg) on days 0 and 21 with the replicon (0.1 and 1 ng) formulated as liposomes with the lipids described below. All liposomes tested were composed of 40% cationic lipid, 10% DSPC, 48% cholesterol and 2% PEG-DMG with similar amounts of RNA. The liposomes were all prepared using the same technique as described above.
% entrapment (% E), Concentration of RNA (Conc), particle size measured by DLS, and polydispersity reported by DLS of LNPs prepared with different cationic lipids

human leptin [2] = assay: Human leptin in mouse plasma (ELISA) after subcutaneous injection of encapsulated leptin mRNA; type: in vivo; conditions: hLeptin, 0.2 mpk
human leptin [3] = assay: Human leptin in mouse plasma (ELISA) after IV tail vein injection of encapsulated leptin mRNA; type: in vivo; conditions: hLeptin
Method: Human leptin in mouse plasma was measured by ELISA. Antibodies purchased from the R&D Systems duoset (Cat #DY398E, part #840279 for capture antibody and part #840280 for detection antibody) were reconstituted using PBS and titered, again using PBS. The capture antibody was coated at 4 ug/ml in 30 ul/well on a white Nunc® Maxisorp 384 well plate (Cat #460372). After an overnight incubation at room temperature the capture antibody was aspirated and the plate blocked for 2 hours at room temperature with 90 ul/well of KPL milk blocker (Cat #50-82-00). Once the incubation was completed the plate was aspirated and recombinant standards and samples were added to the plate at 30 ul/well for 2 hours at 37° C. while shaking at 600 rpm. Sample/standard dilutions were made using casein sample diluent. Washing/aspiration 3 times with 100 ul/well followed, using Teknova plate wash solution (Cat #P1192). Next, detection antibody was diluted using casein detection antibody diluent to 12.5 ng/ml and added at 30 ul/well for 2 hours room temperature. After this incubation, the plate was washed again and a solution of poly-streptavidin-HRP (Cat #21140) at a 1:1250 dilution in HRP dilution buffer was added to each well (30 ul/well) and incubated for 30 minutes room temperature. A final wash/aspiration removed the HRP solution and a chemiluminescent substrate was added at 30 ul/well (Cat #1859678 & 1859679). The plate was quickly read using a SpectramaxM5 plate reader with a 50 ms integration time. The dynamic range of the ELISA is from 100-2,000 […] (6.25-125 pM) of human leptin. The assay is applicable to plasma from mice, rats and cynomolgus monkeys.
Before the tail vein injection, mouse body weights were recorded and diet weighted, with mice grouped according to their body weights. Mice were prepared by warming them under a heating lamp for ˜2 minutes, with the mice about 12 inches from heat lamp. […]
On day 0, animals were weighed and sorted according to average body weight. Mice were dosed, and food intake (FI) was recorded, on each of days 1-7 and days 9, 11, and 16.

mouse Erythropoietin = assay: Mouse EPO ELISA after IV injection of encapsulated mEPO mRNA; type: in vivo; conditions: 0.2 mpk, ob/ob
Method: A rat anti-mouse Erythropoietin antibody is coated on 384-well white microtiter plates overnight, then blocked for assay. Then, plasma samples are diluted in a casein-based sample diluent and incubated on the plate with buffer controls and mouse EPO standards. The plate is then washed to remove unbound material. A biotinylated rat anti-mouse Erythropoietin antibody is then added to the plate to detect mouse EPO bound by the capture antibody. The plate is washed again and a streptavidin-conjugated horseradish peroxidase reagent is incubated on the plate. A third wash step is performed and a chemiluminescent reagent is added to the plate and immediately read by a capable plate reader using all wavelengths and a 50 millisecond integration time. Unknown samples are interpolated off the mouse EPO standard curve.

[4] = RSV-F replicon LNP prepared for 1st IM
[5] = RSV-F replicon LNP prepared for 2nd IM

SMILES | % E (% entrapment) [1, 4] | % E (% entrapment) [1, 5] | Expression of protein following SC injection of encapsulated mRNA (human leptin [2]; C57) | Expression of protein following SC injection of encapsulated mRNA (human leptin [2]; ob/ob) | Expression of protein following IV injection of encapsulated mRNA (human leptin [3]; 0.4mpk, C57) | Expression of protein following IV injection of encapsulated mRNA (mouse Erythropoietin) | Expression of protein following IV injection of encapsulated mRNA (human leptin [3]; 0.2 mpk, ob/ob)
CCCCCCCCCCCCC(CCOC(=O)CCCCC(COC(=O)CCCCCCC)COC(=O)CCCCCCC)OC(=O)OCCCN(CC)CC (stereo not drawn) [Example 1, 2-(10-dodecyl-3-ethyl-8,14-dioxo-7,9,13-trioxa-3-azaoctadecan-18-yl)propane-1,3-diyl dioctanoate] | 91.11% | 87.13% | 1.2 ng/mL | 16.2 ng/mL | 66.3 ng/mL | 247.6 ng/mL | –
CCCCCCCCCCCCC(CCOC(=O)CCCCC(OCCCCCCCC)OCCCCCCCC)OC(=O)OCCCN(CC)CC (stereo not drawn) [Example 16, 3-(((3-(diethylamino)propoxy)carbonyl)oxy)pentadecyl 6,6-bis(octyloxy)hexanoate] | – | – | – | 8.4 ng/mL | – | – | 21.4 ng/mL
CCCCCCCCCCCCC(CCOC(=O)CCCCC(OCC(CC)CCCC)OCC(CC)CCCC)OC(=O)OCCCN(CC)CC (stereo not drawn) [Example 18, 3-(((3-(diethylamino)propoxy)carbonyl)oxy)pentadecyl 6,6-bis((2-ethylhexyl)oxy)hexanoate] | 96.15% | 96.25% | – | – | – | – | –
CCCCCCCCCC(=O)OCCC(CC(CCCCCCCC)CCCCCCCC)OC(=O)OCCCN(C)C (stereo not drawn) [Example 70, 3-(((3-(dimethylamino)propoxy)carbonyl)oxy)-5-octyltridecyl decanoate] | 90.75% | 94.24% | – | – | – | – | –
